This passage reports DC50 results from patent publication US11691972B2, “Compounds for targeted degradation of BRD9” (C4 Therapeutics, Inc., priority 2020, dated 2023).

The target in the test is T1, BRD9 (Homo sapiens, UniProt Q9H8M2).
T1 sequence (Q9H8M2 1-597): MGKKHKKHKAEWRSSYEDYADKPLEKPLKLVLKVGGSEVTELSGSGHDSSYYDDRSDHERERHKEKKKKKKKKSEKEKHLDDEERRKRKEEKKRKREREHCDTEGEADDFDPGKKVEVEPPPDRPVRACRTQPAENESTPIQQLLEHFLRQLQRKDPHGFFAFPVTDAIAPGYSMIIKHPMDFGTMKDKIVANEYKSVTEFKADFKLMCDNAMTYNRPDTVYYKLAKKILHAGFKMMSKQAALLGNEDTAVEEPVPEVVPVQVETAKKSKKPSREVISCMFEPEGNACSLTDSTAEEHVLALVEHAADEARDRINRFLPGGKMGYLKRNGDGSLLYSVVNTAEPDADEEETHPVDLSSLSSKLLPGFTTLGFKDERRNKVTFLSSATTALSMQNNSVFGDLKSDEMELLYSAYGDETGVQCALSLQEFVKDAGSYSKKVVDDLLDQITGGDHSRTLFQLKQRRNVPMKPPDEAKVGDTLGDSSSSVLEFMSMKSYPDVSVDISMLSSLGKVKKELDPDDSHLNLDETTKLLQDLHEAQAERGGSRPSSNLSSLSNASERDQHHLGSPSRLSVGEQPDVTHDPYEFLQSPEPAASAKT
The test is described as follows: HiBiT BRD9 degradation assay in 293T.166 (BRD9-HiBiT) cells. Particulars: 293T.166 cells, 2.0 hours, read-out: HiBiT-Degradation 293T.166 BRD9 2.0 hours (DC50). It is filed as cell-based. Details: endogenously expressing BRD9 with HiBiT fusion tag via CRISPR; host or cells: 293T.166 (BRD9-HiBiT), also expressing LgBiT ectopically. Put shortly: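 293T.166 cells carrying endogenous CRISPR BRD9-HiBiT and expressing LgBiT treated 2 h at 37° C. with compounds, 11-point half-log titration from 10 μM in duplicate. Remaining BRD9 measured as lytic HiBiT luminescence; untreated cells as negative control, no-reagent wells as positive control.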
For orientation: The HiBiT peptide binds its large partner to form an active luciferase.

Read-outs that look alike come from different tables or passages of the source.

As usually defined, the DC50 is the concentration at which degradation of the target reaches its halfway point. For the molecule `COc1cc(-c2cn(C)c(=O)c3[nH]ncc23)cc(OC)c1CN1CCN(C(=O)CC2CCN(c3ccc(NC4CCC(=O)NC4=O)cc3C(F)(F)F)CC2)CC12CC2` (stereo not drawn) [Compound 58], for the setting “Table 1, class symbols”, the 50% degradation concentration (DC50) is less than 100 nM.
On to `Cn1cc(-c2ccc(C(=O)N3CCC(C4CCN(c5ccc(NC6CCC(=O)NC6=O)cc5F)CC4)CC3)c(OC(F)(F)F)c2)c2ccncc2c1=O` (stereo not drawn) [Compound 211], for which the DC50 (Table 1, class symbols) was less than 100 nM.
The same measure, in the same setting: the result for `COc1cc(-c2cn(C)c(=O)c3ccccc23)cc(Cl)c1CN1CCC(N2CCN(c3ccc(NC4CCC(=O)NC4=O)cc3F)CC2)C(F)(F)C1` (stereo not drawn) [Compound 192] reads less than 100 nM; that for `COc1cc(-c2cn(C)c(=O)c3cnccc23)cc(F)c1CN1CCC(N2CCN(c3ccc(NC4CCC(=O)NC4=O)cc3F)CC2)C(F)(F)C1` (stereo not drawn) [Compound 189], less than 100 nM; that for `COc1cc(-c2cn(C)c(=O)c(C)c2C)cc(OC)c1CN1CCN(C(=O)CC2CCN(c3ccc(NC4CCC(=O)NC4=O)cc3C(F)(F)F)CC2)CC1` (stereo not drawn) [Compound 61], less than 100 nM.
On the same count and under the same terms, the result for `Cn1cc(-c2ccc(C(=O)N3CCC(N4CCN(c5ccc(NC6CCC(=O)NC6=O)cc5F)CC4)C(F)(F)C3)c(OC(F)(F)F)c2)c2ccncc2c1=O` (stereo not drawn) [Compound 227] reads less than 100 nM; that for `COc1cc(-c2cn(C)c(=O)c3[nH]ncc23)cc(OC)c1CNc1ccc(CC2CCN(c3ccc(NC4CCC(=O)NC4=O)cc3)CC2)cc1` (stereo not drawn) [Compound 205, 3-[4-[4-[[4-[[2,6-dimethoxy-4-(6-methyl-7-oxo-1H-pyrazolo[3,4-c]pyridin-4-yl)phenyl]methylamino]phenyl]methyl]-1-piperidyl]anilino]piperidine-2,6-dione], less than 100 nM.
On the same count and under the same terms, the result for `COc1cc(-c2cn(C)c(=O)c3[nH]ncc23)cc(OC)c1CN1CCN(C(=O)CC2CCN(c3ccc(NC4CCC(=O)NC4=O)cc3C(F)(F)F)CC2)C(C)(C)C1` (stereo not drawn) [Compound 57] reads less than 100 nM.
In the case of `Cc1c(-c2ccc(C(=O)N3CCC(C4CCN(c5ccc(NC6CCC(=O)NC6=O)cc5F)CC4)CC3)c(OC(F)(F)F)c2)cn(C)c(=O)c1C` (single isomer, unassigned) [Compound 213, 3-[3-fluoro-4-[4-[1-[2-(trifluoromethoxy)-4-(1,4,5-trimethyl-6-oxo-3-pyridyl)benzoyl]-4-piperidyl]-1-piperidyl]anilino]piperidine-2,6-dione], the DC50 (Table 1, numeric bound) was greater than 800 nM.
As to `COc1cc(-c2cn(C)c(=O)c3cnccc23)cc(Cl)c1CN1CCC(N2CCN(c3ccc(N(C)C4CCC(=O)NC4=O)cc3F)CC2)C(F)(F)C1` (stereo not drawn) [Compound 254, 3-[4-[4-[1-[[2-chloro-6-methoxy-4-(2-methyl-1-oxo-2,7-naphthyridin-4-yl)phenyl]methyl]-3,3-difluoro-4-piperidyl]piperazin-1-yl]-3-fluoro-N-methyl-anilino]piperidine-2,6-dione], the DC50 (Table 2, class symbols) is less than 100 nM.
With `COc1cc(-c2cn(C)c(=O)c3[nH]ncc23)cc(F)c1CN1CCC(C2CCN(c3ccc(NC4CCC(=O)NC4=O)cc3C(F)(F)F)CC2)CC1` (stereo not drawn) [Compound 84], where the note is “Table 1, class symbols”, the 50% degradation concentration (DC50) was less than 100 nM.
Still for that read-out and setting: the result for `COc1cc(-c2cn(C)c(=O)c(C)c2C)cc(Cl)c1CN1CCC(N2CCN(c3ccc(NC4CCC(=O)NC4=O)nc3)CC2)C(F)(F)C1` (stereo not drawn) [Compound 196] reads less than 100 nM; that for `COc1cc(-c2cc(C)c(=O)n(C)c2)cc(OC)c1CN1CCN(C(=O)CN2CCC(c3ccc(NC4CCC(=O)NC4=O)cc3)CC2)CC1` (stereo not drawn) [Compound 31], less than 100 nM; that for `COc1cc(-c2cn(C)c(=O)c(C)c2C)cc(OC)c1CN1C2CCC1CN(C(=O)CC1CCN(c3ccc(NC4CCC(=O)NC4=O)cc3F)CC1)C2` (stereo not drawn) [Compound 65], less than 100 nM.
Still for that read-out and setting: the result for `COc1cc(-c2cn(C)c(=O)c3[nH]ncc23)cc(Cl)c1CN1CCc2c(CC3CCN(c4ccc(NC5CCC(=O)NC5=O)cc4F)CC3)cccc2C1` (stereo not drawn) [Compound 105, 3-[4-[4-[[2-[[2-chloro-6-methoxy-4-(6-methyl-7-oxo-1H-pyrazolo[3,4-c]pyridin-4-yl)phenyl]methyl]-3,4-dihydro-1H-isoquinolin-5-yl]methyl]-1-piperidyl]-3-fluoro-anilino]piperidine-2,6-dione] reads less than 100 nM; that for `COc1cc(-c2cn(C)c(=O)c3[nH]ncc23)cc(F)c1C=C1CCN(CC(=O)N2CCC(c3ccc(NC4CCC(=O)NC4=O)cc3)CC2)CC1` (stereo not drawn) [Compound 157, 3-[4-[1-[2-[4-[[2-fluoro-6-methoxy-4-(6-methyl-7-oxo-1H-pyrazolo[3,4-c]pyridin-4-yl)phenyl]methylene]-1-piperidyl]acetyl]-4-piperidyl]anilino]piperidine-2,6-dione], less than 100 nM.
Same read-out and setting: as for `COc1cc(-c2cn(C)c(=O)c3cnccc23)cc(Cl)c1CN1CCC(C2CCN(c3ccc(NC4CCC(=O)NC4=O)cc3)CC2)CC1` (stereo not drawn) [Compound 72], the figure is less than 100 nM; as for `COc1cc(-c2cn(C)c(=O)c3cc(Cl)ccc23)cc(OC)c1CN1CCN(C(=O)CN2CCC(c3ccc(NC4CCC(=O)NC4=O)cc3)CC2)CC1` (stereo not drawn) [Compound 29], less than 100 nM.
Turning to `COc1cc(-c2cn(C)c(=O)c(C)c2C)cc(Cl)c1C(=O)N1CCC(N(C)C(=O)N2CCC(c3ccc(NC4CCC(=O)NC4=O)cc3F)CC2)CC1` (stereo not drawn) [Compound 140], the DC50 (Table 1, class symbols) is less than 100 nM.
Still for that read-out and setting: the result for `COc1cc(-c2cn(C)c(=O)c3cnccc23)cc(Cl)c1CN1CCC(C2CCN(c3ccc(NC4CCC(=O)NC4=O)cc3Cl)CC2)C(F)(F)C1` (stereo not drawn) [Compound 200] reads less than 100 nM; that for `COc1cc(-c2cn(C)c(=O)c3cnccc23)cc(Cl)c1C(=O)N1CCc2c(CC3CCN(c4ccc(NC5CCC(=O)NC5=O)cc4F)CC3)ccc(F)c2C1` (stereo not drawn) [Compound 239, 3-[4-[4-[[2-[2-chloro-6-methoxy-4-(2-methyl-1-oxo-2,7-naphthyridin-4-yl)benzoyl]-8-fluoro-3,4-dihydro-1H-isoquinolin-5-yl]methyl]-1-piperidyl]-3-fluoro-anilino]piperidine-2,6-dione], less than 100 nM; that for `Cc1c(-c2ccc(C(C)N3CCC(C4CCN(c5ccc(NC6CCC(=O)NC6=O)cc5F)CC4)CC3)c(OC(F)(F)F)c2)cn(C)c(=O)c1C` (stereo not drawn) [Compound 91], less than 100 nM.
Take `COc1cc(-c2cn(C)c(=O)c(C)c2C)cc(Cl)c1CN1CCc2c(CC3CCN(c4ccc(NC5CCC(=O)NC5=O)cc4F)CC3)cccc2C1` (single isomer, unassigned) [Compound 249]: under “Table 2, numeric bound”, the DC50 was greater than 800 nM.
With `COc1cc(-c2cn(C)c(=O)c(C)c2C)cc(OC)c1CN1C2CCC1CN(C(=O)CC1CCN(c3ccc(NC4CCC(=O)NC4=O)cc3C(F)(F)F)CC1)C2` (stereo not drawn) [Compound 63, 3-[4-[4-[2-[8-[[2,6-dimethoxy-4-(1,4,5-trimethyl-6-oxo-3-pyridyl)phenyl]methyl]-3,8-diazabicyclo[3.2.1]octan-3-yl]-2-oxo-ethyl]-1-piperidyl]-3-(trifluoromethyl)anilino]piperidine-2,6-dione], the 50% degradation concentration (DC50) (Table 1, class symbols) was less than 100 nM.
The same measure, in the same setting: as for `COc1cc(-c2cn(C)c(=O)c3[nH]ncc23)cc(Cl)c1C(=O)N1CCC(C2CCN(c3ccc(NC4CCC(=O)NC4=O)nc3)CC2)CC1` (stereo not drawn) [Compound 222], the figure is less than 100 nM; as for `COc1cc(-c2cn(C)c(=O)c3cnccc23)cc(F)c1C(=O)N1CCC(N2CCN(c3ccc(NC4CCC(=O)NC4=O)cc3F)CC2)C(F)(F)C1` (stereo not drawn) [Compound 226], less than 100 nM; as for `COc1cc(-c2cn(C)c(=O)c3[nH]ncc23)cc(OC)c1CN1CC(NC(=O)CN2CCC(c3ccc(NC4CCC(=O)NC4=O)cc3)CC2)C1` (stereo not drawn) [Compound 5], less than 100 nM.
The same measure, in the same setting: the result for `CN(C(=O)N1CCC(c2ccc(NC3CCC(=O)NC3=O)cc2)CC1)C1CCN(Cc2ccc(-c3cn(C)c(=O)c4cc(F)ccc34)cc2OC(F)(F)F)CC1(F)F` (stereo not drawn) [Compound 123] reads less than 100 nM; that for `COc1cc(-c2cn(C)c(=O)c3[nH]ncc23)cc(OC)c1CN1CCc2c(CC3CCN(c4ccc(NC5CCC(=O)NC5=O)cc4)CC3)cccc2C1` (stereo not drawn) [Compound 104, 3-[4-[4-[[2-[[2,6-dimethoxy-4-(6-methyl-7-oxo-1H-pyrazolo[3,4-c]pyridin-4-yl)phenyl]methyl]-3,4-dihydro-1H-isoquinolin-5-yl]methyl]-1-piperidyl]anilino]piperidine-2,6-dione], less than 100 nM; that for `COc1cc(-c2cn(C)c(=O)c3[nH]ncc23)cc(F)c1CN1CCN(C(=O)CC2CCN(c3ccc(NC4CCC(=O)NC4=O)cc3)CC2)CC1` (stereo not drawn) [Compound 49, 3-[4-[4-[2-[4-[[2-fluoro-6-methoxy-4-(6-methyl-7-oxo-1H-pyrazolo[3,4-c]pyridin-4-yl)phenyl]methyl]piperazin-1-yl]-2-oxo-ethyl]-1-piperidyl]anilino]piperidine-2,6-dione], less than 100 nM.
